# Changes are numbered by the printed parent chain. Where “and” joins values, the source holds several entries; their conditions need not be identical. Equal entries are not always repeated.
# Tests used:
# MMACHC-R161Q [1] = target: T1, MMACHC-R161Q (Homo sapiens, UniProt Q9Y4U1, R161Q); assay: Differential scanning fluorimetry (DSF), stabilization by cobalamins; format: binding; conditions: for ΔTm max: Tm at 50 μM ligand minus Tm at 0 μM ligand; for ΔTm max / AC50: DSF; for AC50: half-maximal effective ligand concentration for stabilization, 3 μM protein, fit of ΔTm vs ligand concentration
# T1 construct: His-tag (N, cleaved yes); made in house; host or cells: E. coli BL21 DE3
# T1 sequence (Q9Y4U1 1-282 R161Q): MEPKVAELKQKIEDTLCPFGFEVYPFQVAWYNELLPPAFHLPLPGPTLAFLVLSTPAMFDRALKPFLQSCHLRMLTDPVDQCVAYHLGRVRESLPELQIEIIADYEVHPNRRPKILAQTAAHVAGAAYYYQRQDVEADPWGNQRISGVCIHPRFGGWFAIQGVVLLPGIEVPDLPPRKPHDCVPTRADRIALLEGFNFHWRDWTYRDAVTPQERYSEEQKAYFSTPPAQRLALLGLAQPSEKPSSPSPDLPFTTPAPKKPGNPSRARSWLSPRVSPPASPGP
# Protocol: (§1) DSF was performed and analyzed as described in Niesen et al., with minor modifications. Purified MMACHC proteins were diluted to 0.1 mg/ml (3 μM) in buffer (10 mM HEPES pH 7.5, 0.5 M NaCl, 5% glycerol) with 1:1000 Sypro Orange (Invitrogen) and run in triplicate. The proteins were heated from 5 to 75 °C with a ramp rate of 1 °C/min in a thermocycler (Bio-rad C1000 Thermocycler, CFX96 Real-time system). All graphs were normalized so that minimum fluorescence was set to 0 and maximum fluorescence set to 1. […] Final graphs and AC50’s were generated using Kadeidagraph 4.0 software (Synergy Software, Reading, PA). AC50’s were determined by fitting the ΔTm vs. ligand concentration curves to the equation ΔTm = ΔTm max[S]/(AC50 + [S]) where ΔTm is the change in melting temperature (Tm[protein + ligand] − Tm[protein]), ΔTm max is the maximal change in Tm at saturating (50 μM) ligand concentration and [S] is the ligand concentration.
# (§2) Wild-type (MMACHC-wt) and mutant (MMACHC-R161Q) MMACHC were expressed and purified to >95% purity, with His-tag removed, as judged by SDS–PAGE (Fig. 2A). In order to investigate the thermostability of MMACHC we used DSF, a method that measures protein stability and ligand-induced changes in stability [[20,21]]. DSF uses an environmentally sensitive dye, such as Sypro orange, to monitor protein-unfolding caused by heat denaturation. As the protein unfolds, the dye, which has a higher fluorescence quantum yield in nonpolar environments than in aqueous media, binds to hydrophobic regions of the protein, causing a large increase in fluorescence [[22,23]]. Protein stability is expressed as the melting point of the protein (Tm), that is, the transition midpoint of the fluorescence curve, corresponding to the temperature at which half of the protein molecules are folded and half are unfolded. […] Even lower was the stability of MMACHC-R161Q (Tm = 37.1 ± 0.7 °C) (Fig. 2B). The difference in Tm was small but nonetheless significant (p < 0.01). A second difference between the wild-type and mutant proteins was the shape of the unfolding curves, with the unfolding of the mutant protein showing high cooperativity indicating a two-state unfolding mechanism while the unfolding of the wild-type protein stretched over a larger temperature range and comprised two phases (Fig. 2B; also Fig. 3A at 0 μM OHCbl).
# MMACHC-wt [2] = target: T2, MMACHC-wt (Homo sapiens, UniProt Q9Y4U1); assay: as above; format: binding; conditions: for ΔTm max: Tm at 50 μM ligand minus Tm at 0 μM ligand; for AC50: half-maximal effective ligand concentration for stabilization, 3 μM protein, fit of ΔTm vs ligand concentration
# T2 construct: His-tag (N, cleaved yes); made in house; host or cells: E. coli BL21 DE3
# T2 sequence (Q9Y4U1 1-282): T1 sequence (Q9Y4U1 1-282 R161Q) with Q161R
# Protocol: as §1, §2
# GST-MMACHC-wt = target: T3, GST-MMACHC-wt (Homo sapiens, UniProt Q9Y4U1); assay: UV-visible absorption spectra, base-on/base-off binding; conditions: 5 μM cobalamin, 50 μM protein, pH 7.0; for α/β-Peak: nm
# T3 construct: made in house
# T3 sequence (Q9Y4U1 1-282): T1 sequence (Q9Y4U1 1-282 R161Q) with Q161R
# Protocol: (§3) To determine base-on or base-off binding, 5 μM of the appropriate cobalamin or cobinamde in buffer (100 mM Tris, pH 7.0), was incubated in the dark with 400 μl total of 50 μM MMACHC protein (wild-type or R161Q), prepared in the same buffer, or alone, for 5 min at room temperature. In order to retain the high amounts of protein necessary for these experiments, the His-tag (wt and R161Q) or GST-tag (wt protein) was left on. Absorption spectrum measurements were carried out using a MOS-250 spectrometer and recorded using Bio-Kine 32 v4.20 software.
# (§4) In order to determine whether the R161Q mutation interferes with the ability of MMACHC to support this transition, we examined the UV–visible absorption spectra for the proteins bound to AdoCbl, as an example of an alkylcobalamin, as well as for the proteins bound to CNCbl and OHCbl. Each cobalamin was added at a concentration of […] (Fig. 5). To determine whether the cobalamin was base-on or base-off, in the case of CNCbl both base-on and base-off spectra were determined for the free vitamin, as previously reported [[12,14]]. […] Confirming our earlier data, GST-tagged MMACHC-wt bound CNCbl in the base-off state (Table 2). […] Both MMACHC-wt and MMACHC-R161Q bound AdoCbl in the base-off state (Fig. 5; Table 2). […] Finally, neither MMACHC-wt nor MMACHC-R161Q modified OHCbl binding, which retained the base-on profile regardless of the MMACHC species present (Fig. 5; Table 2).
# His-MMACHC-wt [3] = target: T4, His-MMACHC-wt (Homo sapiens, UniProt Q9Y4U1); assay: as above; conditions: 5 μM cobalamin, 50 μM protein, pH 7.0; for α/β-Peak: nm
# T4 construct: made in house; host or cells: E. coli BL21 DE3
# T4 sequence (Q9Y4U1 1-282): T1 sequence (Q9Y4U1 1-282 R161Q) with Q161R
# Protocol: as §3, §4
# His-MMACHC-R161Q = target: T5, His-MMACHC-R161Q (Homo sapiens, UniProt Q9Y4U1, R161Q); assay: as above; conditions: 5 μM cobalamin, 50 μM protein, pH 7.0; for α/β-Peak: nm
# T5 construct: made in house; host or cells: E. coli BL21 DE3
# T5 sequence (Q9Y4U1 1-282 R161Q): T1 sequence (Q9Y4U1 1-282 R161Q)
# Protocol: […] In order to retain the high amounts of protein necessary for these experiments, the His-tag (wt and R161Q) or GST-tag (wt protein) was left on. Absorption spectrum measurements were carried out using a MOS-250 spectrometer and recorded using Bio-Kine 32 v4.20 software.
# as §4
# [4] = UV-visible absorption spectra of free cobalamin; format: physicochemical; conditions: base-on; for α/β-Peak: nm
# Protocol: as §3, §4
# His-MMACHC-wt [5] = target: T4, His-MMACHC-wt; design: method as in PMID 18779575; conditions: cited from earlier work
# MMACHC-wt [6] = target: T2, MMACHC-wt; design: method as in PMID 19700356; conditions: published Kd; unit printed in b1 only; cited from earlier work
# MMACHC-R161Q [7] = target: T1, MMACHC-R161Q; design: method as in PMID 19700356; conditions: recombinant protein, in words; cited from earlier work
# MMACHC-G147D = tested on: MMACHC-G147D; design: method as in PMID 19700356; conditions: recombinant protein, in words; cited from earlier work
ΔTm max (MMACHC-R161Q [1]),AC50 (MMACHC-R161Q [1]),AC50 of R161Q relative to wild-type (MMACHC-R161Q [1]; times/fold less effective than with MMACHC-wt),ΔTm max (MMACHC-wt [2]),AC50 (MMACHC-wt [2]),Structure (SMILES),Base-on/off (GST-MMACHC-wt),α/β-Peak (GST-MMACHC-wt),Base-on/off (His-MMACHC-wt [3]),α/β-Peak (His-MMACHC-wt [3]),Base-on/off (His-MMACHC-R161Q),α/β-Peak (His-MMACHC-R161Q),α/β-Peak [4],binding conformation (base-on/off) (His-MMACHC-wt [5]),γ-Peak (GST-MMACHC-wt; wavelength),γ-Peak (His-MMACHC-wt [3]; wavelength),γ-Peak (His-MMACHC-R161Q; wavelength),γ-Peak ([4]; wavelength),Kd (MMACHC-wt [6]),cobalamin binding (MMACHC-R161Q [7]),cobalamin binding (MMACHC-G147D)
13.2 ± 0.1 °C,1.1 ± 0.1 µM,similar,15.5 ± 0.1 °C,900 ± 100 nM,"CC1=C2N=C(C=C3N=C(C(C)=C4[N-]C(C(CC(N)=O)C4(C)CCC(=O)NCC(C)OP(=O)([O-])OC4C(CO)OC(n5cnc6cc(C)c(C)cc65)C4O)C4(C)N=C1C(CCC(N)=O)C4(C)CC(N)=O)C(CCC(N)=O)C3(C)C)C(CCC(N)=O)C2(C)CC(N)=O.[CH2-]C1OC(n2cnc3c(N)ncnc32)C(O)C1O.[Co+3] (stereo not drawn) [AdoCbl, 5′-deoxyadenosylcobalamin]",Off,472 nm,base-off and Off,460 nm,Off,461 nm,524 nm,base-off,,,,,,,
9.3 ± 0.3 °C,8 ± 1.6 µM,,12.7 ± 0.4 °C,2100 ± 300 nM,"C/C1=C2/[N-][C@H]([C@H](CC(N)=O)[C@@]2(C)CCC(=O)NC[C@H](C)OP(=O)([O-])O[C@H]2[C@@H](O)[C@@H](n3cnc4cc(C)c(C)cc43)O[C@@H]2CO)[C@]2(C)N=C(/C(C)=C3N=C(/C=C4N=C1[C@@H](CCC(N)=O)C\4(C)C)[C@@H](CCC(N)=O)[C@]\3(C)CC(N)=O)[C@@H](CCC(N)=O)[C@]2(C)CC(N)=O.[CH3-].[Co+3] [MeCbl, methylcobalamin]",,,,,,,,base-off,,,,,,,

Structure (SMILES),ΔTm max (MMACHC-R161Q [1]),AC50 (MMACHC-R161Q [1]),AC50 of R161Q relative to wild-type (MMACHC-R161Q [1]; times/fold less effective than with MMACHC-wt),ΔTm max (MMACHC-wt [2]),AC50 (MMACHC-wt [2]),Base-on/off (GST-MMACHC-wt),α/β-Peak (GST-MMACHC-wt),Base-on/off (His-MMACHC-wt [3]),α/β-Peak (His-MMACHC-wt [3]),Base-on/off (His-MMACHC-R161Q),α/β-Peak (His-MMACHC-R161Q),α/β-Peak [4],binding conformation (base-on/off) (His-MMACHC-wt [5]),γ-Peak (GST-MMACHC-wt; wavelength),γ-Peak (His-MMACHC-wt [3]; wavelength),γ-Peak (His-MMACHC-R161Q; wavelength),γ-Peak ([4]; wavelength),Kd (MMACHC-wt [6]),cobalamin binding (MMACHC-R161Q [7]),cobalamin binding (MMACHC-G147D)
"C/C1=C2/[N-][C@H]([C@H](CC(N)=O)[C@@]2(C)CCC(=O)NC[C@@H](C)OP(=O)([O-])O[C@H]2[C@@H](O)[C@@H](n3cnc4cc(C)c(C)cc43)O[C@@H]2CO)[C@]2(C)N=C(/C(C)=C3N=C(/C=C4N=C1[C@@H](CCC(N)=O)C\4(C)C)[C@@H](CCC(N)=O)[C@]\3(C)CC(N)=O)[C@@H](CCC(N)=O)[C@]2(C)CC(N)=O.[Co+3].[OH-] [OHCbl, Hydroxocobalamin]",4 °C and 3.7 ± 0.1 °C,7 µM and 6.6 µM,,8 °C and 7.9 ± 0.6 °C,3000 nM,On,522 nm,base-on and On,532 nm,base-on and On,535 nm,525 nm,,355,356,354,350 nm,6 µM and 5.7 µM,wild-type affinity,unable to bind
